pIC50: −log10 of the molar value.
Key:
R2.2 (HCT116-RDAC) = experiment: MTT based cell survival assay, DAC resistant HCT116 clone R2.2; design: species or system human
Method: (§1) The DAC resistant HCT116 cell lines were developed using two methods.
(§2) The method is primarily based on reduction of yellow colored tetrazolium salt, 3-(4,5-dimethylthiazol-2-yl)-2,5-diphenyltetrazolium bromide (MTT) to insoluble purple colored formazan crystals by NAD(P)H-dependent oxidoreductase enzymes in mitochondria of the viable cell.
(§3) Cells in 80 μL of medium were plated in each of the experimental and the control wells, followed by addition of 20 μL medium with five-fold drug concentration to experimental wells. The wells with medium alone were included alongside as blank for absorbance readings. After 72 h of drug treatment, 10 μL MTT (Sigma-Aldrich) prepared in 1×PBS (5 mg/mL) was added to all wells including blank and control, and incubated until the purple formazan crystals were visible after which 100 μL of detergent (10% SDS, pH: 5.5) was added and the plates were incubated overnight to solubilize the formazan and the cellular material.
(§4) Cross resistance was determined as the fold increase, whereas, the sensitivity was determined as the fold decrease in the IC50 of the drugs for the resistant cell lines compared to their genetically identical drug sensitive counterpart.

R2.1 (HCT116-RDAC) = experiment: MTT based cell survival assay, DAC resistant HCT116 clone R2.1; design: species or system human
Method: as §1, §2, §3, §4

HCT116 xenografts = experiment: Anti-tumor activity in xenografted mouse model, parental HCT116; format: in vivo, SCID mice; conditions: parental HCT116 xenograft, DAC 2.5 mg/kg i.p., 10 doses, day 0-21
Source text: (§5) For in vivo validation of HCT116 resistance towards DAC and sensitivity of DAC resistant tumors to (+)-JQ1 treatment, we studied the anti-tumor activity of DAC and (+)-JQ1 in HCT116 parental versus a resistant cell clone R1.4 (HCT116_RDAC). Xenografts were established in 11-12 weeks-old female SCID mice, inoculated with 5×10^6 cells, s.c. on both sides of the chest. After 2 weeks, tumors were palpable (average tumor volume 20 mm^3) and mice were assigned into four groups (8 mice/group). Group I: vehicle control for DAC (10:90, DMSO: PBS) and Group II: DAC, 2.5 mg/kg by i.p. injection once a day for 14 days (5 days on, 2 days off), total 10 doses. […] Body weights of the animals were measured daily and tumor volume data were collected twice a week. […]
(§6) For determining the anti-tumor activity of the drugs, DAC and (+)-JQ1, tumor volume data for each group were transformed into relative tumor volumes followed by calculation of treatment to control ratio (T/C ratio) for each time point. […] Statistical significance of the data was determined by calculating bootstrap p-value, n=10000, one-sided test of H0: T/C ratio=1, H1: T/C ratio <1 (Jianrong Wu., Journal of Biopharmaceutical Statistics 2010; 20, 954-64). After day 21, statistical significance cannot be measured accurately due to decreased survival of animals in control group. […]

HCT116-RDAC xenografts = experiment: Anti-tumor activity in xenografted mouse model, HCT116-RDAC (clone R1.4); format: in vivo, SCID mice; conditions: HCT116-RDAC xenograft, DAC 2.5 mg/kg i.p., 10 doses, day 0-21
Source text: as §5, §6

SMILES: Nc1ncn([C@H]2C[C@H](O)[C@@H](CO)O2)c(=O)n1 [DAC, 2′-deoxy-5-azacytidine]
- pIC50 (R2.2 (HCT116-RDAC); Homo sapiens, HCT-116, 72 h, read-out: Mean IC50): < 4.00
- fold change (resistance index) (R2.2 (HCT116-RDAC); IC50 R2.2 / IC50 HCT116): (>357) fold
- pIC50 (R2.1 (HCT116-RDAC); Homo sapiens, HCT-116, R2.1, MTT, 72 h drug treatment): < 4.00
- fold change (resistance index) (R2.1 (HCT116-RDAC); IC50 R2.1 / IC50 HCT116): (>357) fold
- fold effect (anti-tumor activity, aAUC of T/C ratio) (HCT116 xenografts): 2.9
- fold effect (anti-tumor activity, aAUC of T/C ratio) (HCT116-RDAC xenografts): 1.3
